Results on 24 compounds are retold here after patent US20250122147A1, “ARYL CYCLOHEXANEDIONE DERIVATIVE OR SALT THEREOF, PEST CONTROL AGENT CONTAINING SAME, AND METHOD FOR USE THEREOF” (ADEKA Corporation, priority 2021, published 2025).

The test system of data set [1] is Plutella xylostella. The data set can be described thus: Insecticidal test against Plutella xylostella. The note with it: 500 ppm drug solution; Chinese cabbage seedlings with eggs immersed about 30 sec; six days after immersion; 25° C.
From the text: Six days after the immersion in the drug solution, the number of surviving insects was examined. […] In triplicate using 10 per plot.
Data set [2] concerns Laodelphax striatellus. As to the kind of experiment: Insecticidal test against Laodelphax striatellus. The note with it: 500 ppm drug solution; rice seedlings immersed 30 seconds; three-instar insects; eight days after inoculation.
Data set [3] relates to Frankliniella occidentalis. The data set can be described thus: Insecticidal test against Frankliniella occidentalis. The note with it: 500 ppm drug solution sprayed on Phaseolus vulgaris leaf pieces with hatched larvae; four days after treatment.
From the text: [formula] • assessment criteria.
Female adult Frankliniella occidentalis were inoculated onto Phaseolus vulgaris leaf pieces, and after allowing them to lay eggs for one day, the female adults were removed. […] Four days after the treatment, the number of surviving larvae of this species was examined. […] In duplicate.
The test system of data set [4] is Dirofilaria immitis. The data set can be described thus: Influence evaluation test on the growth of Dirofilaria immitis. Conditions: 168 h, read-out: development inhibition rate from the L3 stage larva to the L4-stage larva.

The structures appear in SMILES notation.

With `O=C1CC(c2ccc(C(F)(F)F)nc2)CC(O)=C1C(=O)Nc1ccc(F)cc1` (stereo not shown) [1-68], the “corrected mortality, rating of assessment” value (from here on “corrected mortality, rating”) in data set [1] and in data set [2] was “D or higher” throughout.

Turning to `O=C1CC(c2ccc(C(F)(F)F)cc2)CC(SCc2ccccc2)=C1C(=O)Nc1ccc(F)cc1` (stereo not shown) [1-225], the “corrected mortality, rating” value in data set [1] and in data set [2] was “D or higher” in each case.

With `CC1(c2ccc(C(F)(F)F)cc2)CC(=O)C(C(=O)Nc2ccc(F)cc2)=C(O)C1` (stereo not shown) [1-139], in data set [3], the “corrected mortality, rating” value is reported as “D or higher”.

In the case of `O=C1CC(c2ccc(C(F)(F)F)nc2)CC(O)=C1C(=O)Nc1ccc(F)cn1` (stereo not shown) [1-149], the “corrected mortality, rating” value in data set [1] and in data set [2] was “D or higher” throughout.

For the compound `CONC1=C(C(=O)Nc2ccc(F)cc2)C(=O)CC(c2ccc(C(F)(F)F)cc2)C1` (stereo not shown) [1-227, N-(4-fluorophenyl)-5-(methoxyamino)-3-oxo-4′-(trifluoromethyl)-1,2,3,6-tetrahydro-[1,1′-biphenyl]-4-carboxamide], in data set [4], the inhibition at 10 µM is not below 50%.

As for `O=C1CC(c2ccc(C(F)(F)F)nc2)CC(O)=C1C(=O)Nc1ccc(F)nc1` (stereo not shown) [1-150], the “corrected mortality, rating” value in data set [2] and in data set [3] was “D or higher” throughout.

`O=C1CC(c2cncs2)CC(O)=C1C(=O)Nc1ccc(F)cc1` (stereo not shown) [1-152]: the “corrected mortality, rating” value in data set [1] and in data set [2] was “D or higher” in each case.

Turning to `CC(C)NC(=S)C1=C(O)CC(c2ccc(C(F)(F)F)cc2)CC1=O` (stereo not shown) [1-84], in data set [2], the “corrected mortality, rating” value is on record as “D or higher”.

Consider `O=C1CC(c2ccc(C(F)(F)F)cc2)CC(O)=C1C(=O)Nc1ccc(F)cn1` (stereo not shown) [1-48, N-(5-fluoropyridin-2-yl)-5-hydroxy-3-oxo-4′-(trifluoromethyl)-1,2,3,6-tetrahydro-[1,1′-biphenyl]-4-carboxamide], for which the inhibition at 10 µM in data set [4] is not below 50%. Further, the “corrected mortality, rating” value in data set [1] is reported as “D or higher”.

With `O=C1CC(c2ccc(C(F)(F)F)cc2)CC(O)=C1C(=O)Nc1ccc(OC(F)(F)F)cc1` (stereo not shown) [1-9], the “corrected mortality, rating” value in data set [1], in data set [2] and in data set [3] was “D or higher” in each case.

Turning to `O=C1CC(c2ccc(Br)cn2)CC(O)=C1C(=O)Nc1ccc(F)cc1` (stereo not shown) [1-161], the “corrected mortality, rating” value in data set [1] and in data set [2] was “D or higher” throughout.

As to `O=C1CC(c2ccc(C(F)(F)F)cc2)CC(O)=C1C(=O)Nc1ccnc(F)c1` (stereo not shown) [1-147], the “corrected mortality, rating” value in data set [1] is given as “D or higher”.

As to `CS(=O)(=O)c1ccc(C2CC(=O)C(C(=O)Nc3ccc(F)cc3)=C(O)C2)cc1` (stereo not shown) [1-210], the “corrected mortality, rating” value in data set [1] was “D or higher”.

With `CC1(c2ccc(C(F)(F)F)cc2)CC(=O)C(C(=S)Nc2ccc(F)cc2)=C(O)C1` (stereo not shown) [1-140], the “corrected mortality, rating” value in data set [1] is listed as “D or higher”.

`O=C1CC(c2ccc(SC(F)(F)F)cc2)CC(O)=C1C(=O)Nc1ccc(Cl)cc1` (stereo not shown) [1-235]: the “corrected mortality, rating” value in data set [1] was “D or higher”.

For `O=C1CC(c2ccc(C(F)(F)F)cc2)CC(O)=C1C(=O)Nc1nccs1` (stereo not shown) [1-47, 5-hydroxy-3-oxo-N-(thiazol-2-yl)-4′-(trifluoromethyl)-1,2,3,6-tetrahydro-[1,1′-biphenyl]-4-carboxamide], the inhibition at 10 µM in data set [4] is not below 50%.

Regarding `O=C1CC(c2ccc(C(F)(F)F)cc2)CC(O)=C1C(=O)Nc1ccc(Cl)cc1Cl` (stereo not shown) [1-22], the “corrected mortality, rating” value in data set [1] is listed as “D or higher”.

As for `O=C1CC(c2ccc(Cl)s2)CC(O)=C1C(=O)Nc1ccc(F)cc1` (stereo not shown) [1-145], in data set [1], the “corrected mortality, rating” value is listed as “D or higher”.

`Cn1ccc(NC(=O)C2=C(O)CC(c3ccc(C(F)(F)F)cc3)CC2=O)n1` (stereo not shown) [1-167]: in data set [1], the “corrected mortality, rating” value is “D or higher”.

On to `C[S+]([O-])c1ccc(C2CC(=O)C(C(=O)Nc3ccc(F)cn3)=C(O)C2)cc1` (stereo not shown) [1-164], for which the “corrected mortality, rating” value in data set [1] and in data set [2] was “D or higher” in each case.

Consider `O=C1CC(c2ccc(C(F)(F)F)cc2)CC(O)=C1C(=S)Nc1cccc(F)c1` (stereo not shown) [1-95], for which, in data set [1], the “corrected mortality, rating” value was “D or higher”.

Consider `CS(=O)(=O)c1ccc(C2CC(=O)C(C(=O)Nc3ccc(F)cn3)=C(O)C2)cc1` (stereo not shown) [1-165], for which, in data set [1], the “corrected mortality, rating” value is on record as “D or higher”.

`O=C1CC(c2ccc(C(F)(F)F)cc2)CC(O)=C1C(=O)Nc1ccc(S(F)(F)(F)(F)F)cc1` (stereo not shown) [1-184]: the “corrected mortality, rating” value in data set [1] is reported as “D or higher”.

As for `O=C1CC(c2ccc(C(F)(F)F)c(Cl)c2)CC(O)=C1C(=O)Nc1ccc(F)cc1` (stereo not shown) [1-3], the “corrected mortality, rating” value in data set [1] is “D or higher”.
